This is an account of results in patent US12673921B2, “Substituted fluorine-containing imidazole salt compound, preparation method therefor, pharmaceutical composition thereof and use thereof” (XIAMEN VIVOHEALTHS TECHNOLOGY CO., LTD., priority 2019, dated 2026).

The nature of series [1]: Liver microsome stability test, Beagle dog liver microsome. The class given is in vitro ADME. The following applies: microsomes, 0.5 mg protein/mL microsome, 1 μM compound, 37° C., NADPH, read-out: DLM 0.5 T1/2 (min), half life in Beagle dog liver microsome. Here is the method: (§1) The experimental steps were as follows: • 1. Preparation of working solution • 1.1 Intermediate solution: 5 μL of a 10 mM stock solution of sample or control was taken out, and diluted with 495 μl of methanol (Conc.: 100 μM, 99% MeOH). • 1.2 Working solution: 50 μL of the intermediate solution was taken out, and diluted with 450 μL of a 100 mM potassium phosphate buffer (Conc.: 10 μM, 9.9% MeOH). • 2. Preparation of NADPH cofactor
(§2) An appropriate amount of NADPH powder was weighed, and dissolved with a MgCl2 (10 mM) solution. • 3. Liver microsome • 3.1 Liver microsome information
(§3) • 3.2 Preparation: a microsome working solution with an appropriate concentration was prepared by using a 100 mM potassium phosphate buffer. • 4. Stop solution
(§4) Glacial acetonitrile, comprising 100 ng/ml Tolbutamide and 100 ng/ml Labetalol as internal standards. • 5. Experimental procedures • 5.1 10 μL of the working solution of sample or control was added per well to all plates (T0, T5, T10, T20, T30, T60, NCF60), except for the blank group; • 5.2 80 μL of the working solution of microsome was added per well to all plates, followed by incubation for 10 min at 37° C.; • 5.3 10 μL of a 100 mM potassium phosphate buffer was added per well to NCF60, followed by incubation at 37° C. and starting timer 1;
(§5) • 5.4 After preheating, 10 μL of NADPH was added per well to each plate, and reaction was started;
(§6) Final concentration of each component in the incubation medium:
(§7) • 5.6 300 μL of the stop solution was added per well to stop the reaction; • 5.7 The system was shaken for about 10 min; • 5.8 The samples were centrifuged (4000 rpm) at 4° C. for 20 min; • 5.9 To 8 new 96-well plates, 300 μL of HPLC water was added per well, then 100 μL of the supernatant was added, mixed and subjected to LC/MS/MS.
(§8) In the above table, HLM 0.5 T1/2 (min) refers to half life (min) of compounds in human liver microsome, DLM 0.5 T1/2 (min) refers to half life (min) of compounds in Beagle dog liver microsome.
A general note: Liver microsomes are a subcellular fraction often used to study metabolism.

Series [2] can be described thus: Liver microsome stability test, human liver microsome. The series is classed as in vitro ADME. The following applies: microsomes, 0.5 mg protein/mL microsome, 1 μM compound, 37° C., NADPH, read-out: HLM 0.5 T1/2 (min), half life in human liver microsome. How it is done:
as §1, §2, §3, §4, §5, §6, §7, §8

Each structure is given as a SMILES string.

For the compound `Cc1n(CCCCCCCCCCCC(F)(F)C(F)(F)C(F)(F)C(F)(F)C(F)(F)F)cc[n+]1Cc1c(Cl)cccc1Cl.[Cl-]` [IB-33], the half-life at 1 μM in series [1] and in series [2] was above 145 min each time.
